The text below walks through data of ChEMBL document CHEMBL4321809, “Structure-Reactivity Relationships on Substrates and Inhibitors of the Lysine Deacylase Sirtuin 2 from Schistosoma mansoni (SmSirt2)” (J Med Chem, 2019).

Active and inactive are the calls of the source. The calls are words filed in the database; no cut-off is given here.

Data set [1] deals with T1, NAD-dependent protein deacetylase sirtuin-2 (Homo sapiens, UniProt Q8IXJ6).
T1 sequence (Q8IXJ6 whole entry): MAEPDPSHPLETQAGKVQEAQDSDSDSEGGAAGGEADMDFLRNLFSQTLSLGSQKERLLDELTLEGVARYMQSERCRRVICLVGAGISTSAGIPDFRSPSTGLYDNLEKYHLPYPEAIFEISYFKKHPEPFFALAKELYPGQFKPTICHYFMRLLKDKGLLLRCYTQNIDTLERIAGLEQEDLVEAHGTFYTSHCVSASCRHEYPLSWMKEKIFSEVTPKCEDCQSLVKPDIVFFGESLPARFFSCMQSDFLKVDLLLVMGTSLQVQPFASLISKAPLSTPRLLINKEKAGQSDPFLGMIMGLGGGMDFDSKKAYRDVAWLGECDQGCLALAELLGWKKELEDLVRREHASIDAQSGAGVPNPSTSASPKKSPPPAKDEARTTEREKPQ
Put plainly: Inhibition of human sirutin 2 assessed as inhibition of susbtrate demyristoylation at 20 uM using (Z)-(Myr)-Lys-AMC as substrate relative to control.

In data set [2] the target is T2, NAD-dependent protein deacetylase (Schistosoma mansoni, UniProt T1VXA1).
T2 sequence (T1VXA1 whole entry): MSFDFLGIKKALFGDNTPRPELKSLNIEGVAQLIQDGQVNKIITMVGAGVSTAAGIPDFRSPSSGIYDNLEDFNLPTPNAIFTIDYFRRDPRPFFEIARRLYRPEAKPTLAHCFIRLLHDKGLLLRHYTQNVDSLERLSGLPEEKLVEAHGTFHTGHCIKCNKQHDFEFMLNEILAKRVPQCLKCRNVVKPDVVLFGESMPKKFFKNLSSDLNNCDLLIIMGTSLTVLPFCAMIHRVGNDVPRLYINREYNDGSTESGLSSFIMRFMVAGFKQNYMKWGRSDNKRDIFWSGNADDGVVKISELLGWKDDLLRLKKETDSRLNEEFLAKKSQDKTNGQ
The experiment in a line: Inhibition of recombinant Schistosoma mansoni sirtuin 2 (21 to 322 residues) expressed in Escherichia coli BL21(DE3) cells assessed as inhibition of substrate demyristoylation using (Z)-(Myr)-Lys-AMC as substrate.

Data set [3] deals with T2, NAD-dependent protein deacetylase. The experiment in a line: Inhibition of recombinant Schistosoma mansoni sirtuin 2 (21 to 322 residues) expressed in Escherichia coli BL21(DE3) cells assessed as inhibition of substrate deacetylation using ZMAL as substrate.
The target of data set [4] is T3, NAD-dependent protein deacetylase (Schistosoma mansoni) (UniProt T1VXA1).
T3 sequence (whole entry): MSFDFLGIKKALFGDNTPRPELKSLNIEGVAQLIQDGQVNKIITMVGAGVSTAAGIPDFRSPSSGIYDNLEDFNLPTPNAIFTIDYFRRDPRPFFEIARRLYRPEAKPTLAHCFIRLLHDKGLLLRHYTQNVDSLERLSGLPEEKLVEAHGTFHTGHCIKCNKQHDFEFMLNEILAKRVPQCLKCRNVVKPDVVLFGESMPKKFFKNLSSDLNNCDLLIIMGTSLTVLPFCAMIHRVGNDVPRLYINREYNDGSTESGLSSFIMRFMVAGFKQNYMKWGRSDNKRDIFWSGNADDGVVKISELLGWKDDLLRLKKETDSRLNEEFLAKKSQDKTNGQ
The experiment in a line: Inhibition of recombinant Schistosoma mansoni sirtuin 2 (21 to 322 residues) expressed in Escherichia coli BL21(DE3) cells in presence of (Z)-(Oct)Lys-AMC.

Data set [5] concerns the target T3, NAD-dependent protein deacetylase (Schistosoma mansoni). Put plainly: Inhibition of recombinant Schistosoma mansoni sirtuin 2 (21 to 322 residues) expressed in Escherichia coli BL21(DE3) cells in presence of (Z)-(Myr)Lys-AMC.
The target is the same in data set [6]. The experiment in a line: Inhibition of recombinant Schistosoma mansoni sirtuin 2 (21 to 322 residues) expressed in Escherichia coli BL21(DE3) cells in presence of (Z)-(Lau)Lys-AMC.
Data set [7] has the same target. Put plainly: Inhibition of recombinant Schistosoma mansoni sirtuin 2 (21 to 322 residues) expressed in Escherichia coli BL21(DE3) cells in presence of (Z)-(Hex)Lys-AMC.
The target is the same in data set [8]. Put plainly: Inhibition of recombinant Schistosoma mansoni sirtuin 2 (21 to 322 residues) expressed in Escherichia coli BL21(DE3) cells in presence of ZMAL.
The target of data set [9] is T4, NAD-dependent protein deacetylase sirtuin-1 (Homo sapiens, UniProt Q96EB6).
T4 sequence (Q96EB6 whole entry): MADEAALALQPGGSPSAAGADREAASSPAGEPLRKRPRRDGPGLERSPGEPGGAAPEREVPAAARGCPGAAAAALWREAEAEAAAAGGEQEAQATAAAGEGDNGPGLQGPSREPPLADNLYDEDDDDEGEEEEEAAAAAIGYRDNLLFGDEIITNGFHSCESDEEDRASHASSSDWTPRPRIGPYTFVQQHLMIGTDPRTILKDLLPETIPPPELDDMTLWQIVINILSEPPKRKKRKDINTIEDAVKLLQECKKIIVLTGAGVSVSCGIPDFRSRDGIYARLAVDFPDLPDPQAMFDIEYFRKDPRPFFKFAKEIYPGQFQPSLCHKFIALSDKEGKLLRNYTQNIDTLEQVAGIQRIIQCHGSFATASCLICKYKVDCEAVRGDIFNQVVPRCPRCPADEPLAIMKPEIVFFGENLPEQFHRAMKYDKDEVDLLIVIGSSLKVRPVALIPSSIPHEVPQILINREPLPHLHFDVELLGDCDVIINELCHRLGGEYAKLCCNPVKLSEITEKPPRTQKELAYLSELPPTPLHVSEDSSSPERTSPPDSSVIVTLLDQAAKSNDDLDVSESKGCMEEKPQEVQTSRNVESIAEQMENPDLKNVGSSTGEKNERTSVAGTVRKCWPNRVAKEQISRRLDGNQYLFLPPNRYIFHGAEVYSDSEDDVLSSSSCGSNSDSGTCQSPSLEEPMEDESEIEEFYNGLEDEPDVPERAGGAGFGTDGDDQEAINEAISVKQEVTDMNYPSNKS
Put plainly: Inhibition of human sirtuin 1 at 500 uM relative to control.

The target in data set [10] is T3, NAD-dependent protein deacetylase (Schistosoma mansoni). Put plainly: Inhibition of recombinant Schistosoma mansoni sirtuin 2 (21 to 322 residues) expressed in Escherichia coli BL21(DE3) cells in presence of (Z)-(Pal)Lys-AMC.
For data set [11] the target is unchanged. Put plainly: Inhibition of recombinant Schistosoma mansoni sirtuin 2 (21 to 322 residues) expressed in Escherichia coli BL21(DE3) cells in presence of (Z)-(Dec)Lys-AMC.
Data set [12] shares this target. Put plainly: Inhibition of recombinant Schistosoma mansoni sirtuin 2 (21 to 322 residues) expressed in Escherichia coli BL21(DE3) cells in presence of (Z)-(But)Lys-AMC.
In data set [13] the target is T2, NAD-dependent protein deacetylase. Put plainly: Ratio of Kcat for recombinant Schistosoma mansoni sirtuin 2 (21 to 322 residues) expressed in Escherichia coli BL21(DE3) cells in presence of PSDKmyr to Kcat for recombinant Schistosoma mansoni sirtuin 2 (21 to 322 residues) expressed in Escherichia coli BL21(DE3) cells in presence of PSDKac. The class given is ADME.

The target is the same in data set [14]. The experiment in a line: Substrate activity at recombinant Schistosoma mansoni sirtuin 2 (21 to 322 residues) expressed in Escherichia coli BL21(DE3) cells assessed as ratio of Kcat to Km up to 30 mins in presence of ZMAL at saturated concentration by homogeneous fluorescence based analysis. In kind it is ADME. The following applies: 0.5 h.

For orientation: inhibition means the share of the control response that was lost under treatment. For orientation: IC50 means the concentration that inhibits the measured activity by half.

In the case of `NC(=O)c1cccnc1` [NIACINAMIDE], the inhibition at 20 µM in [1] came to 8.7%. Moreover, the values for the 50% inhibitory concentration (IC50) in data set [2] and in data set [3] were 420 µM and 23.1 µM, respectively. The inhibition entry in data set [4], in data set [7], in data set [8] and in [12] was “Active” throughout. The inhibition result in data set [5], in data set [6], in [10] and in [11] was “inactive” throughout. Also, at 500 µM the inhibition in data set [9] was 100%.
`NC(=O)c1ccc[n+]([C@H]2O[C@@H](COP(=O)([O-])OP(=O)(O)OC[C@H]3O[C@@H](n4cnc5c(N)ncnc54)[C@H](O)[C@@H]3O)[C@H](O)[C@@H]2O)c1`: the Ratio in data set [13] is recorded as 3. Also, in data set [14], the Kcat/Km is reported as 9.4 ×10¹ /s/M.
